Results taken from paper PMC7403315, “Cyclic peptide FXII inhibitor provides safe anticoagulation in a thrombosis model and in artificial lungs” (Nature Communications, 2020).
Read-outs that look alike come from different tables or passages of the source. Starred links: 1 amine or outer side, 2 acyl side, 3 side chain; linkers in the order of their positions; H or OH if unused. Positions of bridges follow the written chain, without caps; N, C: chain ends. Non-standard residues stand in square brackets, D forms with d. Residues, ends and D or L forms follow the SMILES beside them. TATA = O=C(CC[*:1])N1CN(C(=O)CC[*:2])CN(C(=O)CC[*:3])C1; Phe(4-F) = N[C@@H](Cc1ccc(F)cc1)C(=O)O; β3hR = N=C(N)NCCC[C@H](N)CC(=O)O

Molecular target: T1, recombinant human FXIIa (Homo sapiens, UniProt P00748)
T1 construct: made in house; host or cells: CHO cells
T1 sequence (P00748 373-615 limits assumed): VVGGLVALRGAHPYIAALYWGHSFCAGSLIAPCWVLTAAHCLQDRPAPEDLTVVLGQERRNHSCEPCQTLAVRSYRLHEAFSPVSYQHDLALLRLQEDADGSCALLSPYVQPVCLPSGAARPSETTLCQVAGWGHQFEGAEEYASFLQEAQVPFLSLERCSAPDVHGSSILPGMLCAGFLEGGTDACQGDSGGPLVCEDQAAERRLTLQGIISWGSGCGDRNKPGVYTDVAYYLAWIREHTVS
T1 sequence (P00748 20-372 limits assumed): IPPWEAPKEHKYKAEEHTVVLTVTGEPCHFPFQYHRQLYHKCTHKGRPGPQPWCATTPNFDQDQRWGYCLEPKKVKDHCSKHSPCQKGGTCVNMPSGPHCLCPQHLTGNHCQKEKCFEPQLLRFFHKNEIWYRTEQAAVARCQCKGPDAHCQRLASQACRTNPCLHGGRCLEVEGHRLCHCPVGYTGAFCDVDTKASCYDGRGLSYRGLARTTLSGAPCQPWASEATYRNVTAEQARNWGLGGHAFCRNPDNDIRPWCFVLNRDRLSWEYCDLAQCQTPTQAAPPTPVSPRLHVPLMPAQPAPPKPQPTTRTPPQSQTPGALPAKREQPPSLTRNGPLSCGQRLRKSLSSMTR
Assay: Inhibition of recombinant FXIIa (rFXIIa)
Type: biochemical
Conditions: for remaining activity at 0.001 µM: peptide 1 nM; for remaining activity at 0.002 µM: peptide 2 nM
From the text: The protein sequences for human, rabbit and pig factor XII were taken from the following database entries: human FXII: UniProtKB - P00748; rabbit FXII: NCBI RefSeq - XP_008253687.1; pig FXII: UniProtKB - O97507. The sequences are shown in the Supplementary Methods. DNA encoding the full-length proteins were ordered from Eurofins Genomics. The codons in these sequences were optimized for mammalian expression using the codon optimization tool from Integrated DNA Technologies (IDT). In addition to the FXII gene, the ordered DNA sequences encode a C-terminal GSGS-linker, a His6-tag and a stop codon, and they are flanked by NheI (GCTAGC) and a HindIII (AAGCTT) restriction sites. The entire DNA sequences are provided in the supporting materials. The DNA sequences were cloned into the pEXPR-IBA42 vector downstream of a BM40 signal sequence for secreted expression in mammalian cells. The ligated vector was transformed into DH5 alpha electrocompetent E. coli cells. Plasmid DNA from single clones was sequenced by Sanger sequencing.
1.5 mg plasmid DNA was transfected into 500 ml CHO cells (Thermo Fisher Scientific) in cell suspension culture using polyethylenimine (PEI). Cells were incubated for seven days at 37 °C, 5% CO2 under shaking conditions. The cells were removed by centrifugation and the secreted protein was purified from the supernatant using a nickel-charged immobilized metal affinity chromatography (IMAC) column (5 ml HisTrap FF Crude, GE Healthcare). The column was equilibrated with buffer containing 15 mM imidazole, 100 mM NaCl, 20 mM Tris-HCl, pH 7.4. The pH of the cell culture supernatant was adjusted to 8.0 using NaOH. The supernatant was run through the column at a flow of 5 ml per min. The column was washed with 20 column volumes of equilibration buffer at a flow of 5 ml per min. The protein was eluted with 500 mM imidazole, 100 mM NaCl, 20 mM Tris-HCl, pH 7.4 at a flow of 5 ml per min. The buffer was subsequently exchanged to 100 mM NaCl, 20 mM Tris-HCl, pH 7.4 by three iterative steps of 10-fold dilution and 10-fold concentration using a 10,000 MWCO centrifugal concentrator. The concentration was determined by measuring absorption at 280 nm (ε = 100,000). For the activation of recombinant FXII, 10 μg protein was diluted to a total volume of 10 μl 100 mM NaCl, 20 mM Tris-HCl, pH 7.4 and further diluted with 10 μl of 2-fold concentrated assay buffer (300 mM NaCl, 20 mM MgCl2, 2 mM CaCl2, 20 mM Tris-HCl, 0.02% (v/v) Triton-X100, pH 7.4). Dextran sulfate 500 kDa (DXS500) was added to a final concentration of 0.2 μg μl^−1 and incubated for 1 hour at 37 °C. 5 μg protein was analyzed by SDS-PAGE under reducing conditions.
Protease inhibition assays
The inhibitory activity of peptides was determined by measuring the residual protease activity with a fluorogenic substrate. The assay was performed in buffer containing 10 mM Tris-Cl, pH […]
1% (v/v) DMSO in a volume of 150 µl. FXIIa activity was measured with the fluorogenic substrate Boc-Gln-Gly-Arg-AMC (Bachem) at a final concentration of 50 µM. Mouse α-FXIIa (Molecular Innovations cat # MFXIIA) and human β-FXIIa (Molecular Innovations cat # HFXIIAB) were used at final concentrations of 0.4 nM. The reaction was pipetted as follows: 50 µl of bicyclic peptide in assay buffer were added to 50 µl of FXIIa in assay buffer and incubated for 10 minutes at 25°C before 50 µl of 150 µM fluorogenic substrate in assay buffer were added to measure the residual protease activity with an Infinite M200Pro fluorescence plate reader (excitation at 368 nm, emission at 467 nm; Tecan) for a period of 30 minutes with a read every minute at 25°C. The Tecan software i-control (version 1.1) was used for data analysis. Stock solutions of 1 mM bicyclic peptide were prepared by either dissolving the unpurified cyclization reaction with water or by dissolving purified and lyophilized peptide in water. The bicyclic peptides were serially diluted two-fold using assay buffer. Sigmoidal curves were fitted to the […]

[1] = Recombinant human FXII, individual plates, read-out: Residual activity (%)
[2] = read-out: Residual activity (%), Recombinant human FXII, individual plates

remaining activity at 0.001 µM [1] [%] | remaining activity at 0.002 µM [1] [%] | remaining activity at 0.004 µM (Recombinant human FXII, peptide 4 nM, individual plates, read-out: Residual activity (%)) [%] | remaining activity at 0.008 µM (Recombinant human FXII, peptide 8 nM, individual plates, read-out: Residual activity (%)) [%] | remaining activity at […] (Recombinant human FXII, peptide 16 nM, individual plates, read-out: Residual activity (%)) [%] | remaining activity at […] (Recombinant human FXII, peptide 32 nM, individual plates, read-out: Residual activity (%)) [%] | remaining activity at 0.064 µM (Recombinant human FXII, peptide 64 nM, individual plates, read-out: Residual activity (%)) [%] | SMILES | Ki [nM] | remaining activity at 62.5 pM (read-out: Residual activity (%), Recombinant human FXII, peptide 0.0625 nM, individual plates) [%] | remaining activity at 0.000125 µM (read-out: Residual activity (%), Recombinant human FXII, peptide 0.125 nM, individual plates) [%] | remaining activity at 0.0005 µM (read-out: Residual activity (%), Recombinant human FXII, peptide 0.5 nM, individual plates) [%] | remaining activity at 0.001 µM [2] [%] | remaining activity at 0.002 µM [2] [%]
87.7 | 78.5 | 65.2 | 47.5 | 30 | 16.5 | 6.9 | CC(C)C[C@@H]1NC(=O)[C@H](CCC(N)=O)NC(=O)[C@H](CCCNC(=N)N)NC(=O)[C@@H]2CSCCC(=O)N3CN(CN(C3)C(=O)CCSC[C@H](NC(=O)[C@@H](N)CCCNC(=N)N)C(=O)N[C@@H](Cc3ccccc3)C(=O)N[C@@H](CCCNC(=N)N)C(=O)N[C@@H](CC(C)C)C(=O)N3CCC[C@H]3C(=O)N2)C(=O)CCSC[C@@H](C(=O)N[C@@H](CCCNC(=N)N)C(N)=O)NC(=O)[C@H](CCCNC(=N)N)NC1=O [FXII618] | – | – | – | – | – | –
– | – | – | – | – | – | – | CC(C)C[C@@H]1NC(=O)[C@H](CCC(N)=O)NC(=O)[C@H](Cc2c[nH]cn2)NC(=O)[C@@H]2CSCCC(=O)N3CN(CN(C3)C(=O)CCSC[C@H](NC(=O)[C@@H](CO)NC(=O)[C@H](N)CCCNC(=N)N)C(=O)N[C@@H](Cc3ccc(F)cc3)C(=O)N[C@@H](CCCNC(=N)N)C(=O)N[C@@H](CC(C)C)C(=O)N3CCC[C@H]3C(=O)N2)C(=O)CCSC[C@@H](C(N)=O)NC(=O)C[C@H](CCCNC(=N)N)NC1=O [FXII900] (H-[dR][dS]C[Phe(4-F)]RLPCHQL[β3hR]C-NH2; linker 3-8-13 via TATA) | 0.51 | 93.8 | 87.9 | 61.1 | 35.5 | 10.4
